Results as given in ChEMBL document CHEMBL1201862, “PubChem BioAssay data set” (2004).
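Results reflect a 48-hour exposure of cells in 96-well plates to compound at five concentrations. Here, GI50 denotes the concentration required for 50% inhibition of growth.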 Active and inactive are the calls of the source. No stated cut-off is given here; in the data, active = GI50 up to about 1.1 µM and inactive = higher.

How the values were obtained:
Assay in all cases: inhibition of tumour cell growth, NCI panel, 48 h
786-0 = test system: 786-0
A549 = test system: A549
BT-549 = test system: BT-549
EKVX = test system: EKVX
HCT-15 = test system: HCT-15
HOP-62 = test system: HOP-62
HT-29 = test system: HT-29
K562 = test system: K562
MDA-MB-231 = test system: MDA-MB-231
Malme-3M = test system: Malme-3M
NCI-H23 = test system: NCI-H23
NCI-H460 = test system: NCI-H460
OVCAR-4 = test system: OVCAR-4
SF-295 = test system: SF-295
SK-MEL-5 = test system: SK-MEL-5
SK-OV-3 = test system: SK-OV-3
SN12C = test system: SN12C
SW-620 = test system: SW-620
T47D = test system: T47D
UO-31 = test system: UO-31

| Structure (SMILES) | GI50 (786-0) | GI50 (A549) | GI50 (BT-549) | GI50 (EKVX) | GI50 (HCT-15) [µM] | GI50 (HOP-62) | GI50 (HT-29) | GI50 (K562) | GI50 (MDA-MB-231) | GI50 (Malme-3M) | GI50 (NCI-H23) | GI50 (NCI-H460) | GI50 (OVCAR-4) | GI50 (SF-295) | GI50 (SK-MEL-5) | GI50 (SK-OV-3) | GI50 (SN12C) | GI50 (SW-620) | GI50 (T47D) | GI50 (UO-31) |
| --- | --- | --- | --- | --- | --- | --- | --- | --- | --- | --- | --- | --- | --- | --- | --- | --- | --- | --- | --- | --- |
| O=C(CCc1ccccc1)NCCc1ccc(O)c(O)c1 | 21.5 µM (inactive) | 47.5 µM (inactive) | 7.01 µM (inactive) | 62.4 µM (inactive) | 31.3 | > 40.6 µM (inactive) | 39.7 µM (inactive) | 7.11 µM (inactive) | 24.8 µM (inactive) | 45.3 µM (inactive) | 32.4 µM (inactive) | 46.9 µM (inactive) | 10.4 µM (inactive) | > 53.3 µM (inactive) | 16.7 µM (inactive) | 27.2 µM (inactive) | 36 µM (inactive) | > 100 µM (inactive) | 59.4 µM (inactive) | 4.57 µM (inactive) |
| CN1CCN(CC(=O)Nc2cccc3ccccc23)CC1 | > 100 µM (inactive) | > 100 µM (inactive) | > 100 µM (inactive) | > 100 µM (inactive) | > 100 | > 100 µM (inactive) | > 31.6 µM (inactive) | > 100 µM (inactive) | > 100 µM (inactive) | > 100 µM (inactive) | > 100 µM (inactive) | > 100 µM (inactive) | > 100 µM (inactive) | > 100 µM (inactive) | > 100 µM (inactive) | > 100 µM (inactive) | > 100 µM (inactive) | > 100 µM (inactive) | > 100 µM (inactive) | > 100 µM (inactive) |
| Nc1cc(S(=O)(=O)O)cc2ccc(S(=O)(=O)O)cc12 | > 100 µM (inactive) | > 100 µM (inactive) | > 100 µM (inactive) | > 100 µM (inactive) | > 100 | > 100 µM (inactive) | > 100 µM (inactive) | > 100 µM (inactive) | > 100 µM (inactive) | > 100 µM (inactive) | > 100 µM (inactive) | > 100 µM (inactive) | > 100 µM (inactive) | > 100 µM (inactive) | > 100 µM (inactive) | > 100 µM (inactive) | > 100 µM (inactive) | > 100 µM (inactive) | > 100 µM (inactive) | > 100 µM (inactive) |
| N#Cc1c(Nc2ccccc2)[n+]([O-])c2ccc(Cl)cc2[n+]1[O-] | 5.25 µM (inactive) | 9.86 µM (inactive) | 3.44 µM (inactive) | 4.3 µM (inactive) | 1.89 | 7.67 µM (inactive) | 3.05 µM (inactive) | 3.03 µM (inactive) | 9.53 µM (inactive) | 7.59 µM (inactive) | 5.08 µM (inactive) | 2.42 µM (inactive) | 1.56 µM (inactive) | 4.52 µM (inactive) | 2.09 µM (inactive) | 21.2 µM (inactive) | 4.49 µM (inactive) | 4.63 µM (inactive) | 6.65 µM (inactive) | 2.89 µM (inactive) |
| CC1=C(C(=O)Nc2ccccc2C)C(c2ccc(C3C(C(=O)Nc4ccccc4C)=C(C)NC(C)=C3C(=O)Nc3ccccc3C)cc2)C(C(=O)Nc2ccccc2C)=C(C)N1 | 3.47 µM (inactive) | 10.8 µM (inactive) | 2.75 µM (inactive) | 7.31 µM (inactive) | 9.4 | 21.1 µM (inactive) | 2.03 µM (inactive) | 2.87 µM (inactive) | 2.29 µM (inactive) | 2.19 µM (inactive) | 3.21 µM (inactive) | 9.04 µM (inactive) | 8.99 µM (inactive) | 4.57 µM (inactive) | 12.1 µM (inactive) | 15.3 µM (inactive) | 1.71 µM (inactive) | 2.49 µM (inactive) | 4.24 µM (inactive) | 13.4 µM (inactive) |
| Cc1ccc(C(=O)NC2C(=O)NC(C(C)C)C(=O)N3CCCC3C(=O)N(C)CC(=O)N(C)C(C(C)C)C(=O)OC2C)c2c1Oc1c(c(C(=O)NC3C(=O)NC(C(C)C)C(=O)N4CCCC4C(=O)N(C)CC(=O)N(C)C(C(C)C)C(=O)OC3C)c3nc(-c4ccccc4)c(=O)oc3c1C)N2 (stereo not given) | < 0.001 µM (active) | < 0.001 µM (active) | < 0.001 µM (active) | 0.00705 µM (active) | 0.0377 | < 0.001 µM (active) | < 0.001 µM (active) | 0.00312 µM (active) | 0.00762 µM (active) | 0.00361 µM (active) | 0.00167 µM (active) | < 0.001 µM (active) | 0.151 µM (active) | < 0.001 µM (active) | 0.00177 µM (active) | 0.00159 µM (active) | < 0.001 µM (active) | 0.004 µM (active) | 0.00453 µM (active) | 0.0103 µM (active) |
| OC(Cc1ccc2ccccc2n1)(C(F)(F)Cl)C(F)(F)Cl | > 10 µM (inactive) | > 10 µM (inactive) | > 10 µM (inactive) | > 10 µM (inactive) | > 10 | > 10 µM (inactive) | > 10 µM (inactive) | > 10 µM (inactive) | > 10 µM (inactive) | > 10 µM (inactive) | > 10 µM (inactive) | > 10 µM (inactive) | > 10 µM (inactive) | > 10 µM (inactive) | > 10 µM (inactive) | > 10 µM (inactive) | > 10 µM (inactive) | > 10 µM (inactive) | > 10 µM (inactive) | > 10 µM (inactive) |
| COc1cc(-c2c3c([nH]c(=O)c2C#N)-c2cc([N+](=O)[O-])ccc2CCC3)cc(OC)c1OC | 24.7 µM (inactive) | 23.8 µM (inactive) | 17.5 µM (inactive) | 24.4 µM (inactive) | 26.4 | 19.9 µM (inactive) | 37.5 µM (inactive) | 18.9 µM (inactive) | 19.9 µM (inactive) | 22.8 µM (inactive) | 17.4 µM (inactive) | 16.8 µM (inactive) | 21.5 µM (inactive) | 16.1 µM (inactive) | 12.9 µM (inactive) | 15.5 µM (inactive) | 16.2 µM (inactive) | 40.5 µM (inactive) | 14.1 µM (inactive) | 19 µM (inactive) |
| CC1=CC(=O)c2c(O)cccc2C1=O [PLUMBAGIN] | 1.65 µM (inactive) | 11.5 µM (inactive) | 1.7 µM (inactive) | 1.6 µM (inactive) | 1.7 | 5.52 µM (inactive) | 1.89 µM (inactive) | 0.391 µM (active) | 1.92 µM (inactive) | 0.966 µM (active) | 1.81 µM (inactive) | 3.64 µM (inactive) | 1.76 µM (inactive) | 11.5 µM (inactive) | 1.62 µM (inactive) | 14.1 µM (inactive) | 1.94 µM (inactive) | 1.91 µM (inactive) | 0.434 µM (active) | 1.61 µM (inactive) |
